From US9238039B2, “Pyrazolo[1,5-A]pyrimidines for antiviral treatment” (Gilead Sciences, Inc., priority 2010, dated 2016)

Tested on: RSV strain A2
Assay: RSV antiviral cytoprotection assay in Hep2 cells (96-well and 384-well format, Cell TiterGlo read-out)
Assay type: cell-based, Respiratory Syncytial Virus (RSV)
Conditions: human respiratory syncytial virus; for inhibition at 0.5 µM: HEp-2, 0.5 uM, RSV-induced cytopathic effect in Hep2 cells, calculated from fitted dose response curve, normalized to 0% and 100%; for EC50: HEp-2, RSV-induced cytopathic effects, Hep2 cells, class symbols

SMILES	inhibition at 0.5 µM [%]	EC50 [nM]
CN(C)CCN(C)c1cc(N2CCC2)nc2cc([C@@H]3CCCCN3C(=O)c3cc(Cl)ccc3NS(C)(=O)=O)nn12 [Compound 175]	100	0.1 to 100
Cc1cn2nc([C@@H]3Cc4ccccc4CN3C(=O)c3cc(Cl)ccc3NS(C)(=O)=O)cc2nc1N1CC[C@H](N)C1 [Compound 176]	100	0.1 to 100
CS(=O)(=O)Nc1ccc(Cl)cc1C(=O)N1CCCCCC1c1cc2nc(N3CCC3)cc(N3CCOCC3)n2n1 (stereo not drawn) [Compound 177]	99	0.1 to 100
CS(=O)(=O)Nc1ccc(Cl)cc1C(=O)N1CCCCCC1c1cc2nc(N3CC(N)C3)cc(N3CCOCC3)n2n1 (stereo not drawn) [Compound 178]	100	0.1 to 100
Cc1cn2nc([C@@H]3CCCCN3C(=O)c3cc(Cl)ccc3NS(C)(=O)=O)cc2nc1N1CC(N)C(C#N)C1 (stereo partly drawn) [Compound 186]	100	0.1 to 100
Cc1cn2nc([C@@H]3CCCCN3C(=O)c3cc(Cl)ccc3NS(C)(=O)=O)cc2nc1N1CC(OC(=O)[C@@H](N)C(C)C)C1 [Compound 187]	100	0.1 to 100
Cc1ccc(NS(C)(=O)=O)c(C(=O)N2CCCC[C@H]2c2cc3nc(N4CC[C@@H](C#N)C4)c(C)cn3n2)c1 [Compound 188]	100	0.1 to 100
Cc1ccc(NS(C)(=O)=O)c(C(=O)N2CCCC[C@H]2c2cc3nc(N4CCC4)c(C)cn3n2)c1 [Compound 189]	100	0.1 to 100
Cc1ccc(NS(C)(=O)=O)c(C(=O)N2CCCC[C@H]2c2cc3nc(N4CC[C@H](N)C4)c(C)cn3n2)c1 [Compound 190]	100	0.1 to 100
Cc1ccc(NS(C)(=O)=O)c(C(=O)N2CCCC[C@H]2c2cc3nc(N4CC(N)C4)c(C)cn3n2)c1 [Compound 191]	100	0.1 to 100
Cc1cn2nc([C@@H]3CCCCN3C(=O)c3cc(N)ccc3NS(C)(=O)=O)cc2nc1N1CC(O)C1 [Compound 192]	100	0.1 to 100
CS(=O)(=O)Nc1ccc(N)cc1C(=O)N1CCCC[C@H]1c1cc2nc(N3CCC3)cc(N3CCOCC3)n2n1 [Compound 193]	100	0.1 to 100
Cc1ccc(NS(C)(=O)=O)c(C(=O)N2CCCC[C@H]2c2cc3nc(N4CCC4)cc(N4CCOCC4)n3n2)c1 [Compound 194]	100	0.1 to 100
Cc1cn2nc([C@@H]3CCCCN3C(=O)c3cc(Cl)ccc3NS(C)(=O)=O)cc2nc1N1C[C@H](O)[C@@H](O)C1 [Compound 197]	100	0.1 to 100
Cc1cn2nc([C@@H]3CCCCN3C(=O)c3cc(Cl)ccc3NS(C)(=O)=O)cc2nc1N1CC[C@@H](CO)C1 [Compound 198]	95	0.1 to 100
Cc1cn2nc([C@@H]3CCCCN3C(=O)c3cc(Cl)ccc3NS(C)(=O)=O)cc2nc1N1CCC[C@H]1C#N [Compound 200]	95	0.1 to 100
Cc1cn2nc([C@@H]3CCCCN3C(=O)c3cc(Cl)ccc3NS(C)(=O)=O)cc2nc1N1C[C@@H](N)C2(CC2)C1 [Compound 201]	64	101 to 1000
Cc1cn2nc([C@@H]3CCCCN3C(=O)c3cc(Cl)ccc3NS(C)(=O)=O)cc2nc1N1CC[C@H](N)C1 [Compound 202]	100	0.1 to 100
Cc1cn2nc([C@@H]3CCCCN3C(=O)c3cc(Cl)ccc3NS(C)(=O)=O)cc2nc1N1CCC[C@H]1CN [Compound 203]	86	101 to 1000
Cc1cn2nc([C@@H]3CCCCN3C(=O)c3cc(Cl)ccc3NS(C)(=O)=O)cc2nc1N1CC[C@@H](C)C1 [Compound 204]	98	0.1 to 100
Cc1cn2nc([C@@H]3CCCCN3C(=O)c3cc(Cl)ccc3NS(C)(=O)=O)cc2nc1N1CCC(C)(C#N)C1 (stereo partly drawn) [Compound 205]	91	0.1 to 100
Cc1cn2nc([C@@H]3CCCCN3C(=O)c3cc(Cl)ccc3NS(C)(=O)=O)cc2nc1N1CCC[C@H]1CN1CCCC1 [Compound 206]	99	0.1 to 100
Cc1cn2nc([C@@H]3CCCCN3C(=O)c3cc(Cl)ccc3NS(C)(=O)=O)cc2nc1N1CCC(Oc2ccccc2)C1 (stereo partly drawn) [Compound 208]	95	0.1 to 100
Cc1cn2nc([C@@H]3CCCCN3C(=O)c3cc(Cl)ccc3NS(C)(=O)=O)cc2nc1N1CCC(c2ccccn2)C1 (stereo partly drawn) [Compound 209]	88	101 to 1000
Cc1cn2nc([C@@H]3CCCCN3C(=O)c3cc(Cl)ccc3NS(C)(=O)=O)cc2nc1N1CCC[C@H]1CO [Compound 210]	81	101 to 1000
Cc1cn2nc([C@@H]3CCCCN3C(=O)c3cc(Cl)ccc3NS(C)(=O)=O)cc2nc1N1C[C@@H](N)C[C@H]1CO [Compound 211]	100	0.1 to 100
Cc1cn2nc([C@@H]3CCCCN3C(=O)c3cc(Cl)ccc3NS(C)(=O)=O)cc2nc1N1CC(Oc2ccccn2)C1 [Compound 212]	88	101 to 1000

SMILES	inhibition at 0.5 µM [%]	EC50 [nM]
Cc1cn2nc([C@@H]3CCCCN3C(=O)c3cc(Cl)ccc3NS(C)(=O)=O)cc2nc1N1CC(CO)C1 [Compound 213]	99	0.1 to 100
Cc1cn2nc([C@@H]3CCCCN3C(=O)c3cc(Cl)ccc3NS(C)(=O)=O)cc2nc1N1CCC(C#N)CC1 [Compound 215]	99	0.1 to 100
Cc1cn2nc([C@@H]3CCCCN3C(=O)c3cc(Cl)ccc3NS(C)(=O)=O)cc2nc1N1CCC(N)CC1 [Compound 216]	100	0.1 to 100
Cc1cn2nc([C@@H]3CCCCN3C(=O)c3cc(Cl)ccc3NS(C)(=O)=O)cc2nc1N1CCCC(O)C1 (stereo partly drawn) [Compound 217]	89	101 to 1000
Cc1cn2nc([C@@H]3CCCCN3C(=O)c3cc(Cl)ccc3NS(C)(=O)=O)cc2nc1N1CCC(O)CC1 [Compound 218]	72	101 to 1000
Cc1cn2nc([C@@H]3CCCCN3C(=O)c3cc(Cl)ccc3NC(=O)C3CC3)cc2nc1N1CC[C@H](N)C1 [Compound 219]	100	0.1 to 100
COC(=O)Nc1ccc(Cl)cc1C(=O)N1CCCC[C@H]1c1cc2nc(N3CC[C@H](N)C3)c(C)cn2n1 [Compound 220]	100	0.1 to 100
CC(=O)Nc1ccc(C)cc1C(=O)N1CCCC[C@H]1c1cc2nc(N3CC(O)C3)c(C)cn2n1 [Compound 221]	100	0.1 to 100
CC(=O)Nc1ccc(C)cc1C(=O)N1CCCC[C@H]1c1cc2nc(N3CC(N)C3)c(C)cn2n1 [Compound 222]	100	0.1 to 100
CC(=O)Nc1ccc(Cl)cc1C(=O)N1CCCC[C@H]1c1cc2nc(N3CC[C@H](N)C3)c(C)cn2n1 [Compound 223]	100	0.1 to 100
CC(=O)Nc1ccc(Cl)cc1C(=O)N1CCCC[C@H]1c1cc2nc(N3CC(O)C3)c(C)cn2n1 [Compound 224]	100	0.1 to 100
Cc1cn2nc([C@@H]3CCCCN3C(=O)c3c(C)cccc3NS(C)(=O)=O)cc2nc1N1CCC1 [Compound 225]	100	0.1 to 100
CC(C)(C)OC(=O)N1CCN(c2cc(C3CC3)nc3cc([C@@H]4CCCCN4C(=O)c4cc(Cl)ccc4NS(C)(=O)=O)nn23)CC1 [Compound 226]	100	0.1 to 100
CS(=O)(=O)Nc1ccc(Cl)cc1C(=O)N1CCCC[C@H]1c1cc2nc(N3CCC3)cc(N3CC[C@H](N)C3)n2n1 [Compound 227]	100	0.1 to 100
CS(=O)(=O)Nc1ccc(Cl)cc1C(=O)N1CCCC[C@H]1c1cc2nc(N3CC[C@@H](C#N)C3)cc(N3CCOCC3)n2n1 [Compound 228]	100	0.1 to 100
Cc1cn2nc([C@@H]3CCCCN3C(=O)c3cc(Cl)ccc3NS(C)(=O)=O)cc2nc1N1CCC[C@@H](N)C1 [Compound 231]	98	0.1 to 100
Cc1cn2nc([C@@H]3CCCCN3C(=O)c3cc(Cl)ccc3NS(C)(=O)=O)cc2nc1N1CC[C@@H](N)C1 [Compound 232]	100	0.1 to 100
CS(=O)(=O)Nc1ccc(Cl)cc1C(=O)N1CCCC[C@H]1c1cc2nc(N3CCC3)cc(N3CCC(N)CC3)n2n1 [Compound 233]	100	0.1 to 100
Cc1cn2nc([C@@H]3CCCCN3C(=O)c3cc(Cl)ccc3NS(C)(=O)=O)cc2nc1NCCNCCO [Compound 235]	99	0.1 to 100
Cc1ccc(NS(C)(=O)=O)c(C(=O)N2CCCC[C@H]2c2cc3nc(C)c(C)c(N4CCCCC4)n3n2)c1 [Compound 236]	98	0.1 to 100
Cc1cc(C2CC2)nc2cc([C@@H]3CCCCN3C(=O)C(NC(=O)OC(C)(C)C)c3ccccc3Br)nn12 (stereo partly drawn) [Compound 237]	99	0.1 to 100
Cc1cc(C2CC2)nc2cc([C@@H]3CCCCN3C(=O)C(NC(=O)OC(C)(C)C)c3cccc(Cl)c3)nn12 (stereo partly drawn) [Compound 238]	100	101 to 1000
Cc1cc(C2CC2)nc2cc([C@@H]3CCCCN3C(=O)C(c3ccccc3)N(C)C)nn12 (stereo partly drawn) [Compound 239]	36	101 to 1000
Cc1cc(C2CC2)nc2cc([C@@H]3CCCCN3C(=O)[C@](C)(NS(C)(=O)=O)c3ccccc3)nn12 [Compound 240]	71	101 to 1000
Cc1cc(C2CC2)nc2cc([C@@H]3CCCCN3C(=O)C(NS(C)(=O)=O)c3ccccc3)nn12 (stereo partly drawn) [Compound 241]	99	0.1 to 100
Cc1cc(C2CC2)nc2cc([C@@H]3CCCCN3C(=O)C(NC(=O)OC(C)(C)C)c3ccccc3)nn12 (stereo partly drawn) [Compound 242]	72	101 to 1000
Cc1cn2nc([C@@H]3CCCCN3C(=O)c3cc(Cl)ccc3NS(C)(=O)=O)cc2nc1N1CC(OP(=O)(O)O)C1 [Compound 244]	88	0.1 to 100
